Here are results for ten compounds from PMC6409486 (Stem Cell Reports, 2019).

“Also recorded” adds a separate entry of the source. Where two headings read alike, the source gives them in different places.

Data set [1] relates to mouse ESC-derived MNs. Kind of data set: MN survival with activated BV2 cells. The class given is cell-based.
The subject of data set [2] is mouse ESC-derived MNs. Kind of data set: MN survival with DetaNO. The class given is cell-based.
Data set [3] has as its system mouse ESC-derived MNs. Description: Compounds on unstressed MNs. To be noted: for toxicity to unstressed MNs: absence of any stress; for survival of unstressed MNs: unstressed conditions. It counts as cell-based.
Data set [4] concerns mouse ESC-derived MNs. Kind of data set: CHIR rescue of CP681301-mediated cytotoxicity. The class given is cell-based. The note with it: 5 μM CP681301, increasing concentrations of CHIR (1.25-2.5 µM).
Data set [5] relates to human iPSC-derived MNs. Description: TUBB3 immunostaining and neurite segmentation of human MNs with DetaNO. It counts as cell-based.
Data set [6] has as its target T1, CDK9 (Homo sapiens, UniProt P50750). To be noted: 10 μM; ref Fabian et al., 2005; http://lincs.hms.harvard.edu/db/datasets/20044/; cited from earlier work.
For data set [7], the target named is T2, CDK7 (Homo sapiens, UniProt P50613). To be noted: 10 μM; ref Fabian et al., 2005; http://lincs.hms.harvard.edu/db/datasets/20044/; cited from earlier work.
T2 sequence (P50613 whole entry, species assumed): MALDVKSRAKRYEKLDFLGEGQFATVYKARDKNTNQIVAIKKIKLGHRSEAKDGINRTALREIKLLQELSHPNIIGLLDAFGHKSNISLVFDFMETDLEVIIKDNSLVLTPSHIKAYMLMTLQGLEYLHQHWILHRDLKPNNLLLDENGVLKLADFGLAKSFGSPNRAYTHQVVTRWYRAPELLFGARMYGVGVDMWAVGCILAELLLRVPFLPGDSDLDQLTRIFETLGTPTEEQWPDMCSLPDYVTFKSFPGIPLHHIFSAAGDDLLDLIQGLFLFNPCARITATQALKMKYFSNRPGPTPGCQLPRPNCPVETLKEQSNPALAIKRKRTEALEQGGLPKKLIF
T2 sequence (P51946 whole entry partner, species assumed): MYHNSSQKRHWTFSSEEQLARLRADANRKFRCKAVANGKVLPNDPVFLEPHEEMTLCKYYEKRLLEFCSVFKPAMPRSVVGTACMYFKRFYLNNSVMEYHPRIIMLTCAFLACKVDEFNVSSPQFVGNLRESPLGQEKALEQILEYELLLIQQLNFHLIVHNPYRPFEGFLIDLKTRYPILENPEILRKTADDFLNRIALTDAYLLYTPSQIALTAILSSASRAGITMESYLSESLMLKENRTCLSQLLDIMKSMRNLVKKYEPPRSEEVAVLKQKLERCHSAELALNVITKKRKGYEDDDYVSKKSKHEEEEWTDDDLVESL
T2 sequence (P51948 whole entry partner, species assumed): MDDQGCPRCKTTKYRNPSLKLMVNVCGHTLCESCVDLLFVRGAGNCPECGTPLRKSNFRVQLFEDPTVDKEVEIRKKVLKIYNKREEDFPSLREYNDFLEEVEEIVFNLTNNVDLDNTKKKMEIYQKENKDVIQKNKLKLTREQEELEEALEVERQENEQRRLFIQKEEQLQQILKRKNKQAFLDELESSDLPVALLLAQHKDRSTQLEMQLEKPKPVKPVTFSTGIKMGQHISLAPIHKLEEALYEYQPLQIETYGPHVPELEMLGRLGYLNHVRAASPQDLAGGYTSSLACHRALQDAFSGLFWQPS
Data set [8] has as its system FACS-purified mouse ESC-derived MNs. Kind of data set: FACS-purified MNs cultured with DetaNO in the absence of astrocytes. The class given is cell-based.
A further data set deals with GSK3β (Homo sapiens, UniProt P49841). The note with it: 1 μM; ref Chen et al., 2016; cited from earlier work.
Chain of GSK3β (P49841 whole entry, species assumed): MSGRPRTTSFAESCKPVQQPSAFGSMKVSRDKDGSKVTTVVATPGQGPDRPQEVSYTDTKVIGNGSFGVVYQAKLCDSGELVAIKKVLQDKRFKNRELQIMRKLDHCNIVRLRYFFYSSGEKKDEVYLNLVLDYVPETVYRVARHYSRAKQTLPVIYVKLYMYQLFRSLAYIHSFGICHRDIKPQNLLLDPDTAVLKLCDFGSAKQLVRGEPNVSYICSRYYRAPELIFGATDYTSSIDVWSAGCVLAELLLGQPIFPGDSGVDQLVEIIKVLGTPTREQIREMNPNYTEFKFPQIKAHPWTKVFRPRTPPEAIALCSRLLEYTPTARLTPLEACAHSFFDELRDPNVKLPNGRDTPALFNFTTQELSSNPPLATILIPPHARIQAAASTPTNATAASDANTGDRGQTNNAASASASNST
In data set [9] the test system is human iPSC-derived MNs. Description: CellTiter-Glo assay, human MNs stressed with 400 μM DetaNO. It counts as cell-based. On the technique in general: In ATP-based viability assays light output follows the ATP content of the culture.
The target in data set [10] is T1, CDK9. Description: CDK9 LANCE Assay. To be noted: biochemical profiling. In general terms: In TR-FRET formats the signal depends on donor and acceptor labels being close together.
For the next data set, the system named is iPSC-derived MNs. Kind of data set: Label-free quantitative phosphoproteomics of DetaNO-treated MNs. The class given is cell-based, human.
Data set [11] has as its target T2, CDK7. Kind of data set: CDK7 LANCE Assay. The note with it: biochemical profiling.

T1 sequence (P50750 whole entry, species assumed): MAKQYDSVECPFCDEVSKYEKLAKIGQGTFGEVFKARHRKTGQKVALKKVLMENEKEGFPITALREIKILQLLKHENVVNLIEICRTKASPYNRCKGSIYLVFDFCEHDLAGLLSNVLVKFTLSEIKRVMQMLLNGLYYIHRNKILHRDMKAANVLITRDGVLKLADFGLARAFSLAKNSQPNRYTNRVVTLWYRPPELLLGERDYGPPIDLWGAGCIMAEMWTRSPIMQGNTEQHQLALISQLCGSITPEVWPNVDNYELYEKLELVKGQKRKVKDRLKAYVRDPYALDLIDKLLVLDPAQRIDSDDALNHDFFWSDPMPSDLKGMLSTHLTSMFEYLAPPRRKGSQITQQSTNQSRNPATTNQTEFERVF
T1 sequence (O60563 whole entry partner, species assumed): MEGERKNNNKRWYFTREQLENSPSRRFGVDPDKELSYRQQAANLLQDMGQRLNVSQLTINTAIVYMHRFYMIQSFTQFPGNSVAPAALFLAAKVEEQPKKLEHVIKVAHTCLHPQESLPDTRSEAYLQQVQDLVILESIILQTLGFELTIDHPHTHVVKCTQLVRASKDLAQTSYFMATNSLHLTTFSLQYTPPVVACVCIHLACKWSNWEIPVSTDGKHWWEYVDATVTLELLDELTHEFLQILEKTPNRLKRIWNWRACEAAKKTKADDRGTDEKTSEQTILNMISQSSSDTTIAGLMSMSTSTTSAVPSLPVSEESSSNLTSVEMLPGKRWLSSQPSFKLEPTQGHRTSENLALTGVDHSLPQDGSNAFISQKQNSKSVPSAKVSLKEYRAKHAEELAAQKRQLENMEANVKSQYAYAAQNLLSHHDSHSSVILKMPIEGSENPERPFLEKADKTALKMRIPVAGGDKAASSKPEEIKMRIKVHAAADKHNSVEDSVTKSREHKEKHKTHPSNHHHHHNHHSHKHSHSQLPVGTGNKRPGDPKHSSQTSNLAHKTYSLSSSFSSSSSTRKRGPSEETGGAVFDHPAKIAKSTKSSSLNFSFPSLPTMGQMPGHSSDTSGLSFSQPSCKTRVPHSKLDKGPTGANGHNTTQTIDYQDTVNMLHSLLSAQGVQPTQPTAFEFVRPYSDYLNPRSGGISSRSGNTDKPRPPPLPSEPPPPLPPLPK

As to `CC1CCN=C(N)S1` (centres unmarked) [AMT, 2-amino-5,6-dihydro-6-methyl-4H-1,3-thiazine], the “protection of MNs from activated BV2-induced degeneration (words)” value in the data set with mouse ESC-derived MNs [1] is “rescued”.
Consider `CC(C)(C)c1cnc(CSc2cnc(NC(=O)C3CCNCC3)s2)o1` [BMS-387032], for which the “protection of MNs from DetaNO-induced degeneration (words)” value in the data set with mouse ESC-derived MNs [2] is listed as “robustly protected; also recorded: rescued”. Further, the “toxicity to unstressed MNs” value with mouse ESC-derived MNs [3] was “induced toxicity”. In the data set with mouse ESC-derived MNs [1], the “protection of MNs from activated BV2-induced degeneration (words)” value is on record as “robustly protected; also recorded: rescued”.
Turning to `Cc1c[nH]c(-c2cnc(NCCNc3ccc(C#N)cn3)nc2-c2ccc(Cl)cc2Cl)n1` [CHIR], the “rescue of MNs from CP681301-mediated cytotoxicity” value in the data set on mouse ESC-derived MNs [4] is reported as “rescued”. For the same compound, the “protection of MNs from DetaNO-induced degeneration (words)” value in the data set with mouse ESC-derived MNs [2] was “failed to protect”. In the data set on mouse ESC-derived MNs [3], the “toxicity to unstressed MNs” value is “did not show any cytotoxic effects” and the “survival of unstressed MNs” value is reported as “small, but significant increase”.
As for `NCCN(CCN)/[N+]([O-])=N/O` [DetaNO, diethylenetriamine/NO adduct], the “number of TUBB3-positive punctae” value in the data set on human iPSC-derived MNs [5] (400 μM DetaNO for 24 h) is on record as “large increase”. In addition, in the data set with human iPSC-derived MNs [5] (iPSC-derived MNs, DetaNO), the “area of TUBB3-positive neurite segments” value is reported as “decreased”.
As for `NS(=O)(=O)c1ccc(Nc2nc(OCC3CCCCC3)c3[nH]cnc3n2)cc1` [NU6102], the “protection of MNs from DetaNO-induced degeneration (words)” value in the data set with mouse ESC-derived MNs [2] is “not protective”.
In the case of `CC(=O)c1c(C)c2cnc(Nc3ccc(N4CCNCC4)cn3)nc2n(C2CCCC2)c1=O` [PD332991], at CDK9 [6], the “ATP binding to CDK9” value was “significantly reduces ATP binding”. Also, the “protection of MNs from DetaNO-induced degeneration (words)” value in the data set with mouse ESC-derived MNs [2] is listed as “not neuroprotective”. On CDK7 [7], the “ATP binding to CDK7” value was “significantly reduces ATP binding”.
For the compound `COc1ccc(F)c(F)c1C(=O)c1cnc(NC2CCN(S(C)(=O)=O)CC2)nc1N` [R-547], the “protection of MNs from DetaNO-induced degeneration (words)” value in the data set on mouse ESC-derived MNs [2] is recorded as “robustly protected; also recorded: rescued”. In addition, the “protection of MNs from activated BV2-induced degeneration (words)” value in the data set with mouse ESC-derived MNs [1] was “robustly protected; also recorded: rescued”.
As for `CCc1cnn2c(NCc3ccc[n+]([O-])c3)cc(N3CCCC[C@H]3CCO)nc12` [dinaciclib], the “protection of FACS-purified MNs from DetaNO-induced degeneration” value in data set [8] is “protected”. In addition, the “reduction of the activity of GSK3β” value at GSK3β is listed as “about 70%”. The “rescue of human MNs from DetaNO stress, CellTiter-Glo ATP levels” value in the data set on human iPSC-derived MNs [9] was “potently rescued”. Moreover, the “protection of MNs from DetaNO-induced degeneration (words)” value with mouse ESC-derived MNs [2] is “robustly protected”; in the data set on mouse ESC-derived MNs [2] (listed as Dinaciclib), “rescued”. Further, the “toxicity to unstressed MNs” value in the data set on mouse ESC-derived MNs [3] is on record as “induced toxicity”. Moreover, the results for the “protection of MNs from activated BV2-induced degeneration (words)” value in the data set with mouse ESC-derived MNs [1] and in the data set with mouse ESC-derived MNs [1] (listed as Dinaciclib) were “robustly protected” and “rescued”, respectively.
For `CN1CC[C@H](c2c(O)cc(O)c3c(=O)cc(-c4ccccc4Cl)oc23)[C@H](O)C1` [flavopiridol], the “protection of MNs from DetaNO-induced degeneration (words)” value with mouse ESC-derived MNs [2] is recorded as “robustly protected; also recorded: rescued”. For the same compound, the “toxicity to unstressed MNs” value in the data set with mouse ESC-derived MNs [3] is listed as “induced toxicity”. The “protection of MNs from activated BV2-induced degeneration (words)” value with mouse ESC-derived MNs [1] is recorded as “robustly protected; also recorded: rescued”.
As to `O=C1Cc2c([nH]c3ccc(Br)cc23)-c2ccccc2N1` [kenpaullone], the “protection of MNs from DetaNO-induced degeneration (words)” value with mouse ESC-derived MNs [2] is recorded as “robustly protected”. In the data set with mouse ESC-derived MNs [3], the “toxicity to unstressed MNs” value is reported as “no visible toxicity” and the “survival of unstressed MNs” value is recorded as “small increase in MN survival”. The “inhibition of CDK9” value against CDK9 [10] is recorded as “does not inhibit”. Also, the “protection of human MN neurites from DetaNO, TUBB3 neurite segments” value in the data set with human iPSC-derived MNs [5] (400 μM DetaNO, 0.625 μM kenpaullone, two iPSC lines) is on record as “robustly protected”. Further, the “phosphopeptide levels of MAPT, MAP1B and MAP2” value in the data set with iPSC-derived MNs (DetaNO-treated iPSC-derived MNs) is listed as “consistently decreased”. In addition, the “phosphorylation levels of CLASP1, CLASP2 and DPYSL2” value in the data set on iPSC-derived MNs (compared with MNs cultured with DetaNO) is listed as “reduced”. The “inhibition of CDK7” value on CDK7 [11] is “does not inhibit”.
